Reference: paper PMC4113009, “Dihydroisoxazole inhibitors of Anopheles gambiae seminal transglutaminase AgTG3” (Malaria Journal, 2014)

Experiments:
AgTG3 [1] = target: T1, AgTG3 (Anopheles gambiae, UniProt D2K8K8); experiment: AgTG3 plugin cross-linking assay (SDS-PAGE, FITC-CAD); format: biochemical; details: 100 μM inhibitor, 5 mM CaCl2, intensity of high MW bands
Protocol: Recombinant AgTG3 was pre-incubated with 100 μM inhibitors overnight at room temperature. AgTG3, with and without pretreatment with inhibitors (1 μg), was added to plugin-C (20 μg) and 0.5 mM FITC-cadaverine (FITC-CAD) in 25 mM HEPES, pH 7.5, 10 mM CaCl2, 1 mM DTT. The reaction was incubated at room temperature for 2 h and quenched by heat denaturation of the proteins in the presence of Laemmli buffer. The extent of cross-linking was analysed by sodium dodecyl sulphate-polyacrylamide gel electrophoresis (SDS-PAGE). The gel was scanned using Alpha Imager 2200 software.
Additional assays were performed to examine whether compounds 1 and 3 would inhibit the cross-linking of plugin-C by AgTG3 in solution, with FITC-CAD for fluorescent detection of plugin-C. Results were assessed by SDS/PAGE and UV illumination to detect FITC-CAD (Figure 7). […] In the presence of enzyme, substrate and calcium a ladder of fluorescent bands of increasing molecular weight (MW) is observed (lane 4), corresponding to cross-linked oligomers of plugin also labeled by FITC-CAD. […] However, the levels of AgTG3 in solution assays are higher in the cross-linking assay than the primary screen. The levels of plugin-C were also higher, which competes with slow-binding irreversible inhibitors such as 1 and 3 for the active site of AgTG3.
Figure 7 Inhibition of plugin cross-linking by DHI inhibitors. Fluorescent image of SDS-PAGE for FITC-cadaverine labeling and cross-linking of plugin by AgTG3. Lanes (1–4): (1) AgTG3, (2) Plugin-C, (3) AgTG3 and plugin-C, (4) AgTG3, plugin-C, and 5 mM CaCl2. Lanes (5–8): AgTG3, plugin-C, 5 mM CaCl2 and (5) 10 mM EDTA, (6) 50 mM IA, (7) 100 μM 1, (8) 100 μM 3. (below) Coomassie stain indicating relative levels of monomeric Plugin-C.

AgTG3 [2] = target: T1, AgTG3; experiment: Covalent modification of AgTG3 by ESI-MS and tandem MS/MS; format: binding
Protocol: Recombinant AgTG3 (20 μM) was dialyzed against HEPES buffer containing 100 mM NaCl, 10 mM CaCl2, and 5% glycerol. Inhibitors were added to a final concentration of 100 μM and incubated overnight. Samples were subsequently injected on a Waters ACQUITY Ultraperformance liquid chromatography (UPLC) system coupled to an ACQUITY UPLC Photodiode Array (PDA) λ detector. Electrospray ionization (ESI) mass spectrograms were collected in the positive ion mode and subsequently transformed for molecular weight determination using MASSLYNX software (Waters).
Samples prepared for ESI-MS (50 μL) were pretreated with 2 μL of 10 g/l trypsin (Sigma) for 1 h at 37°C. The reaction was stopped by formic acid, and the sample was submitted to the W.M. Keck Biotechnology Resource Laboratory (Yale University) for tandem MS/MS proteomics analysis. Results were further analysed using the online MassMatrix server.
DHI inhibitors form a thioether bond with the TG active site cysteine, a modification that should be detectable by mass spectrometry. […] AgTG3 was treated with 100 μM 3 overnight and the intact protein subsequently analyzed by ESI-MS (Figure 8A). The parent mass for unmodified AgTG3 was detected at m/z = 84173 Da. […] The expected m/z shift for reaction with 3 is +470, however, […] than what was observed. To confirm the mass shift corresponds to modification of the active site cysteine with 3, treated AgTG3 was subjected to tryptic digestion and LC-MS/MS analysis. […] No other modified cysteines were detected in the protein. Taken together, the secondary in vitro assays of cross-linking and covalent modification confirm 1–3 as active site inhibitors of AgTG3.

AgTG3 [3] = target: T1, AgTG3; experiment: biochemical; details: dose–response curves in the range of 0.5–100 μM, FITC-CAD plate assay; read-out: IC50 for inhibition of AgTG3
Protocol: Plugin-C (25 μg/well) was incubated in black 96-well Ni-coated plates (Pierce 15342) for 2 h at room temperature or overnight at 4°C. Plates were washed three times with 200 μL of TBS and loaded with 0.5 μg of AgTG3 in 50 μL TBS buffer. DHI inhibitors were added for 1 h to block the enzyme, followed by 50 μL of 2× assay buffer (2× TBS, 20 mM CaCl2, 100 μM FITC-CAD, 2 mM DTT). Wells were incubated for 60 min at room temperature, washed three times with 200 μL of TBS, and filled to a final volume of 100 μL for fluorescence measurements in a microplate reader (Biotek Synergy 2). The z-score was calculated based on the mean and standard deviation of three replicates of inhibitor compared to a DMSO control, zi=x¯DMSO-x¯i/σDMSO+σi .
The targeted chemical library was screened for inhibition of AgTG3 at 100 μM in a FITC-CAD plate assay (Figure 3A), performed in triplicate as previously described. Hit-calling was based on >67% decrease in fluorescence compared to DMSO and z > 5. Seven compounds fulfilled these criteria in the primary assay.
To verify the results of this preliminary assay, dose–response curves in the range of 0.5–100 μM were determined for 27 structurally related compounds within the targeted library (Additional file 3: Table S2 and Additional file 4: Table S3). […] Selected stereoisomers present in the targeted library were compared in equivalent dose–response assays. Inhibition of AgTG3 was specific for the (S)-DHI isomer of 1 (Figure 4A), the (R) isomer (4) displaying no activity (IC50 > 100 μM).

T1 sequence (D2K8K8 entry or part of it): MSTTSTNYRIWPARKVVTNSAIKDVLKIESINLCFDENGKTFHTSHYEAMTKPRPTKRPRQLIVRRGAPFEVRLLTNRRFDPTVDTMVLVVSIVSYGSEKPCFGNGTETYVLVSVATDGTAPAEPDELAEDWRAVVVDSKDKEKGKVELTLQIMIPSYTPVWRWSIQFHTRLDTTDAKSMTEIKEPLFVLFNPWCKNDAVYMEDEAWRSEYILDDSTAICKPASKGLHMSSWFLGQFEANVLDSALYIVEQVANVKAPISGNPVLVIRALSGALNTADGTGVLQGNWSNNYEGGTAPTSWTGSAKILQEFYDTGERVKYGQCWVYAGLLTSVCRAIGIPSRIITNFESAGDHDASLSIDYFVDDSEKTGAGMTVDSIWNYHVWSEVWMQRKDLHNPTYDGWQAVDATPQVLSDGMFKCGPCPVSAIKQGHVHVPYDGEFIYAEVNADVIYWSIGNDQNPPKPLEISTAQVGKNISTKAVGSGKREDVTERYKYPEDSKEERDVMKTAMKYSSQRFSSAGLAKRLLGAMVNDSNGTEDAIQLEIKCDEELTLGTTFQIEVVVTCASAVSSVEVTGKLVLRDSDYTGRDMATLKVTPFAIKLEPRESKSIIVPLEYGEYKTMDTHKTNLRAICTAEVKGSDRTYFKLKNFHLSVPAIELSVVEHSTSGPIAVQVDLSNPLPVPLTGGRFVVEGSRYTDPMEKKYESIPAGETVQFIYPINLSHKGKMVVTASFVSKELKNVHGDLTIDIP

With O=C(N[C@@H](Cc1c[nH]c2ccccc12)C(=O)NC[C@@H]1CC(Br)=NO1)OCc1cnc2ccccc2c1 the “Inhibition of plugin-C cross-linking by AgTG3” value (AgTG3 [1]) was “to a lesser extent”, the “Mass shift of intact AgTG3 after treatment” value (AgTG3 [2]; 100 μM overnight, ESI-MS) was “+465 m/z” and the “Mass shift of tryptic peptide containing AgTG3 active site cysteine” value (AgTG3 [2]; 100 μM overnight, tryptic digestion, LC-MS/MS) was “+469 amu”. The “Site of covalent modification of AgTG3” value (AgTG3 [2]; y ion fragmentation, no other modified cysteines detected) was “specific modification of Cys 323” and the IC50 (AgTG3 [3]) was 6.1 µM.
